Measured values: ChEMBL document CHEMBL5365397, “Synthesis and biological evaluation of biotinylated ZJ-101” (Bioorg Med Chem Lett, 2023)

Key:
SF-295 [1] = experiment: Growth inhibition of human SF-295 cells measured after 48 hrs by SRB assay; type: functional
MDA-MB-231 [2] = experiment: Growth inhibition of human MDA-MB-231 cells measured after 48 hrs by SRB assay; type: functional
HT-29 = experiment: Growth inhibition of human HT-29 cells measured after 48 hrs by SRB assay; type: functional, cell-based; details: HT-29, 48 h
HCT-116 = experiment: Growth inhibition of human HCT-116 cells measured after 48 hrs by SRB assay; type: functional, cell-based; details: HCT-116, 48 h
MCF7 = experiment: Antiproliferative activity against human MCF7 cells by Alamar Blue assay; type: functional, cell-based
MDA-MB-231 [3] = experiment: Antiproliferative activity against human MDA-MB-231 cells by Alamar Blue assay; type: functional, cell-based
SF-295 [4] = experiment: Antiproliferative activity against human SF-295 cells by Alamar Blue assay; type: functional, cell-based

| Structure (SMILES) | GI50 (SF-295 [1]) [µM] | GI50 (MDA-MB-231 [2]) [µM] | IC50 (HT-29) [µM] | IC50 (HCT-116) [µM] | IC50 (MCF7) [µM] | IC50 (MDA-MB-231 [3]) [µM] | IC50 (SF-295 [4]) [µM] |
| --- | --- | --- | --- | --- | --- | --- | --- |
| CC(=O)N[C@H](C)[C@@H](O)[C@@H](C)[C@@H]1OC(=O)/C=C/C=C(C)\C=C\[C@]2(C)CCC=C[C@@H]2/C=C(C)/C=C/[C@H]1C | < 0.01 | < 0.01 | 0.0075 | 0.0527 | 0.0408 | 0.0611 |  |
| CC1=C/C=C/C(=O)O[C@@H]([C@H](C)[C@H](O)[C@@H](C)NC(=O)CCOCCOCCOCCOCCNC(=O)CCCC[C@@H]2SC[C@@H]3NC(=O)N[C@@H]32)[C@H](C)/C=C/C(C)=C/[C@H]2C=CCC[C@@]2(C)\C=C\1 |  |  |  |  | > 5 | > 5 | > 5 |
